# Source: patent EP2505659A1, “Methods for the identification of dioxygenase interacting molecules and for the purification of dioxygenase proteins” (CELLZOME AG, priority 2011, dated 2012)
# Structures can show the parent of a compound that is named as a salt.
# Columns and labels:
# [1] = molecular target: T1, LEPREL2 (Homo sapiens, UniProt Q8IVL6); test: Bead competition binding assay, immobilized compound B, HL-60 nuclear extract; conditions: 200 µM free compound B, read-out: Fold change versus DMSO control
# T1 construct: capturing and identification of dioxygenases from nuclear protein extracts; endogenous in cells
# T1 sequence (Q8IVL6 21-736): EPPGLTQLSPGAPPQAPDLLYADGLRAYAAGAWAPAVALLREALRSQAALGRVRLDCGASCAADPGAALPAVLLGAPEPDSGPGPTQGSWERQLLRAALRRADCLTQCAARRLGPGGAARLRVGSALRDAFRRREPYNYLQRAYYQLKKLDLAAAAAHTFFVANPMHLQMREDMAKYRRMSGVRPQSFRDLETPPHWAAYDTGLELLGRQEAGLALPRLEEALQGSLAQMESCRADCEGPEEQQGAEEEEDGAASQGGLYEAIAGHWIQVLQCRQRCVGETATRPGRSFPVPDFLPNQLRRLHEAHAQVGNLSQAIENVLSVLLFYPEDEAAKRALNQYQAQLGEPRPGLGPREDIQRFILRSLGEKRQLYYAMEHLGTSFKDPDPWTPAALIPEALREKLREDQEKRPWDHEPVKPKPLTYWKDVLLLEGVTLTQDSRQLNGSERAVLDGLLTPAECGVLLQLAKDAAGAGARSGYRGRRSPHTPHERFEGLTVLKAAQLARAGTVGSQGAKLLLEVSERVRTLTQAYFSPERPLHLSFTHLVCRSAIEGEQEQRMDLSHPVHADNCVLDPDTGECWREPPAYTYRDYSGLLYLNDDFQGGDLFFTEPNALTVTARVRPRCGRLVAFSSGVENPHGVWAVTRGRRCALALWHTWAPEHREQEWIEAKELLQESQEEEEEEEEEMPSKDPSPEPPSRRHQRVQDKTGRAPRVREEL
# Description: (§1) The preparation of HL-60 nuclear lysates, capturing of dioxygenases from cell lysate and the protein identification by Mass Spectrometry was performed as described in example 2.
# (§2) Seven different dioxygenases were identified. […] Table 7: Identified dioxygenases with compound B from HL-60 nuclear extract
# [2] = molecular target: T2, LEPRE1 (Homo sapiens, UniProt Q32P28); test: as above; conditions: 200 µM free compound B, read-out: Fold change versus DMSO control
# T2 construct: capturing and identification of dioxygenases from nuclear protein extracts; endogenous in cells
# T2 sequence (Q32P28 23-736): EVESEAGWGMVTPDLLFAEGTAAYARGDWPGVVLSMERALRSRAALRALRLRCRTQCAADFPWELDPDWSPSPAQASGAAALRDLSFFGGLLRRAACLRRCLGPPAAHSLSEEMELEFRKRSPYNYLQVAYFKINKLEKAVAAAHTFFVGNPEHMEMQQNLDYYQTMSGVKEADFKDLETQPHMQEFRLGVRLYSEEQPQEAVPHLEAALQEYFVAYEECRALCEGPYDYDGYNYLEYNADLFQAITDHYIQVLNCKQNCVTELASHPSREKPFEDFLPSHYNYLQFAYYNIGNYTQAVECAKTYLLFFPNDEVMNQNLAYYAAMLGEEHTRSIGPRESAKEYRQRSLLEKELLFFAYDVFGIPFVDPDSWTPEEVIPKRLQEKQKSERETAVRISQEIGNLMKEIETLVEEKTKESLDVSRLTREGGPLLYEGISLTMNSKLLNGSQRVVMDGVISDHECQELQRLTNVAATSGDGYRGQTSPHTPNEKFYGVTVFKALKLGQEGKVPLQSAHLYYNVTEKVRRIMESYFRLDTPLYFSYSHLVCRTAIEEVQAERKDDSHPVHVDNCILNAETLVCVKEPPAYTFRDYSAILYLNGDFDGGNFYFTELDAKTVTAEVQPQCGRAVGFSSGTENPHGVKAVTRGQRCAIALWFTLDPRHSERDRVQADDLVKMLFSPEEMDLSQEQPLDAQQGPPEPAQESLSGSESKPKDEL
# Description: as §1, §2
# [3] = molecular target: T3, C17ORF101 (Homo sapiens, UniProt Q6PK18); test: as above; conditions: 200 µM free compound B, read-out: Fold change versus DMSO control
# T3 construct: capturing and identification of dioxygenases from nuclear protein extracts; endogenous in cells
# T3 sequence (Q6PK18 1-331 isoform Q6PK18-2): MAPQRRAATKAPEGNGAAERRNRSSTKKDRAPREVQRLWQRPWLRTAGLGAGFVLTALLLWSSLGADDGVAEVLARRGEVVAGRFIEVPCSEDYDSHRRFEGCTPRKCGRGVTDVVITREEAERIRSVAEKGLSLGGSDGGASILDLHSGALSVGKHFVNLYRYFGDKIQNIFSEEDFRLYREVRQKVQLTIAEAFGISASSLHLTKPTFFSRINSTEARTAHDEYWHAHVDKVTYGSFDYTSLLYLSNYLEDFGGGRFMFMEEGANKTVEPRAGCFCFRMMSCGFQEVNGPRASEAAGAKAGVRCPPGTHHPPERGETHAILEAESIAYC
# Description: as §1, §2
# [4] = molecular target: T4, ALKBH3 (Homo sapiens, UniProt Q96Q83); test: as above; conditions: 200 µM free compound B, read-out: Fold change versus DMSO control
# T4 construct: capturing and identification of dioxygenases from nuclear protein extracts; endogenous in cells
# T4 sequence (Q96Q83 1-286): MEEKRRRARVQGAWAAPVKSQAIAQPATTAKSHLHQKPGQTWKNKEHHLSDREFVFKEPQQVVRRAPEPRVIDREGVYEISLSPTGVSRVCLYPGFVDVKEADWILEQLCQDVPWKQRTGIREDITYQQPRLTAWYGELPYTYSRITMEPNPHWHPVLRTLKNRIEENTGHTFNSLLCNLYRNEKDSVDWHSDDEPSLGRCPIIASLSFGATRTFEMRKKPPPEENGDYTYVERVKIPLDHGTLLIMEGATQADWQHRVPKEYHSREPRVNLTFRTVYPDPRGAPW
# Description: as §1, §2
# [5] = molecular target: T5, P4HA1 (Homo sapiens, UniProt P13674); test: as above; conditions: 200 µM free compound B, read-out: Fold change versus DMSO control
# T5 construct: endogenous in cells
# T5 sequence (P13674 18-534): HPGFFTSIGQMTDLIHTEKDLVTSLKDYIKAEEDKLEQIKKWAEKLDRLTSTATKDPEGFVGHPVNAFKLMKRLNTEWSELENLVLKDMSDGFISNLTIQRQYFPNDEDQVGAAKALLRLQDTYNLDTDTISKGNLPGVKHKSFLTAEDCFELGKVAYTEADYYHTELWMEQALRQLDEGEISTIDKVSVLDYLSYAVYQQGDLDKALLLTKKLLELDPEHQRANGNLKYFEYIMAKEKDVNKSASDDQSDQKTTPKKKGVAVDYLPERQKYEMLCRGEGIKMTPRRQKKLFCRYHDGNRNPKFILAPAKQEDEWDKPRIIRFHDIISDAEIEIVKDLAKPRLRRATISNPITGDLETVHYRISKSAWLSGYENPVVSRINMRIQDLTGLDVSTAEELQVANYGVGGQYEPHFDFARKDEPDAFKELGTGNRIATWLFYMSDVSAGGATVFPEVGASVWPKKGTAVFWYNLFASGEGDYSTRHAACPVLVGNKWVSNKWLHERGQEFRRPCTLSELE
# T5 sequence (P07237 18-508 partner): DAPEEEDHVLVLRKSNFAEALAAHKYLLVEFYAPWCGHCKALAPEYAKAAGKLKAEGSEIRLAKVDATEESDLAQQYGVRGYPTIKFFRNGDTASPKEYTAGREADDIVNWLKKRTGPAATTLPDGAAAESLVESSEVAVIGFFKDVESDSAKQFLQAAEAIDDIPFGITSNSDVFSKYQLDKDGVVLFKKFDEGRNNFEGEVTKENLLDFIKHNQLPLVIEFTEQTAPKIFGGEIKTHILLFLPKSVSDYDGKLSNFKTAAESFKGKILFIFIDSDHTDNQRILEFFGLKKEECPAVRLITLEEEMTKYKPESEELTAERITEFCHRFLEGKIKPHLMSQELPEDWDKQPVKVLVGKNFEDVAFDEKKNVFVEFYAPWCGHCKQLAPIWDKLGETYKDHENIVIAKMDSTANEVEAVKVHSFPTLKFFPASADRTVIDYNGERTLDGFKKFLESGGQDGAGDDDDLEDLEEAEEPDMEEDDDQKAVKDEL
# Description: as §1, §2
# [6] = molecular target: T6, OGFOD2 (Homo sapiens, UniProt Q6N063); test: as above; conditions: 200 µM free compound B, read-out: Fold change versus DMSO control
# T6 construct: endogenous in cells; host or cells: HL-60 nuclear extract
# T6 sequence (Q6N063 1-350): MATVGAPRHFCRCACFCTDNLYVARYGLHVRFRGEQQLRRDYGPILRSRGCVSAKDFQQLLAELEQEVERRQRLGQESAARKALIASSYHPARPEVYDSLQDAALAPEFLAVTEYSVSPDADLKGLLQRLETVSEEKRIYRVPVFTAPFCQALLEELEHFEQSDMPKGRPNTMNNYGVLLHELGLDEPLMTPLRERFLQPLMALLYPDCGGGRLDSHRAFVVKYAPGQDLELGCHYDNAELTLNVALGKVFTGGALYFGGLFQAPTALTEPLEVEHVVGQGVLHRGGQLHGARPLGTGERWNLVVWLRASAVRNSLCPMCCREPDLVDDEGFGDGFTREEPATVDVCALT
# Description: as §1, §2
# [7] = molecular target: T7, EGLN1 (Homo sapiens, UniProt Q9GZT9); test: as above; conditions: 200 µM free compound B, read-out: Fold change versus DMSO control
# T7 construct: endogenous in cells
# T7 sequence (Q9GZT9 whole entry): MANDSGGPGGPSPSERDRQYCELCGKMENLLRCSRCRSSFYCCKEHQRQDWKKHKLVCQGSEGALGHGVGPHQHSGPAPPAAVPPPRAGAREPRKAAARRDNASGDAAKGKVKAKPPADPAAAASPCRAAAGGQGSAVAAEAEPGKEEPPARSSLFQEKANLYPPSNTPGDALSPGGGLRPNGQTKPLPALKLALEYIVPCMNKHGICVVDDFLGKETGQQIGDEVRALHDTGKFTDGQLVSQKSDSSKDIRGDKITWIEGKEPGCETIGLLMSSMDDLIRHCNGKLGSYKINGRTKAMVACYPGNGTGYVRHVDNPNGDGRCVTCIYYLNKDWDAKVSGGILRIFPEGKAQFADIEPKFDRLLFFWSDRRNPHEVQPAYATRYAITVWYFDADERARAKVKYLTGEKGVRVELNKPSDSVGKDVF
# Description: as §1, §2
# [8] = molecular target: T1, LEPREL2; test: Bead competition binding assay, immobilized compound C, HL-60 nuclear extract; conditions: 200 µM free compound C, read-out: Fold change versus DMSO control
# Description: as §1
# (§3) Seven different dioxygenases were identified. […] Table 8: Identified dioxygenases with compound C from HL-60 nuclear extract
# [9] = molecular target: T2, LEPRE1; test: as above; conditions: 200 µM free compound C, read-out: Fold change versus DMSO control
# Description: as §1, §3
# [10] = molecular target: T3, C17ORF101; test: as above; conditions: 200 µM free compound C, read-out: Fold change versus DMSO control
# Description: as §1, §3
# [11] = molecular target: T4, ALKBH3; test: as above; conditions: 200 µM free compound C, read-out: Fold change versus DMSO control
# Description: as §1, §3
# [12] = molecular target: T8, PLOD1 (Homo sapiens, UniProt Q02809); test: as above; conditions: 200 µM free compound C, read-out: Fold change versus DMSO control
# T8 construct: capturing and identification of dioxygenases from nuclear protein extracts; endogenous in cells
# T8 sequence (Q02809 19-727): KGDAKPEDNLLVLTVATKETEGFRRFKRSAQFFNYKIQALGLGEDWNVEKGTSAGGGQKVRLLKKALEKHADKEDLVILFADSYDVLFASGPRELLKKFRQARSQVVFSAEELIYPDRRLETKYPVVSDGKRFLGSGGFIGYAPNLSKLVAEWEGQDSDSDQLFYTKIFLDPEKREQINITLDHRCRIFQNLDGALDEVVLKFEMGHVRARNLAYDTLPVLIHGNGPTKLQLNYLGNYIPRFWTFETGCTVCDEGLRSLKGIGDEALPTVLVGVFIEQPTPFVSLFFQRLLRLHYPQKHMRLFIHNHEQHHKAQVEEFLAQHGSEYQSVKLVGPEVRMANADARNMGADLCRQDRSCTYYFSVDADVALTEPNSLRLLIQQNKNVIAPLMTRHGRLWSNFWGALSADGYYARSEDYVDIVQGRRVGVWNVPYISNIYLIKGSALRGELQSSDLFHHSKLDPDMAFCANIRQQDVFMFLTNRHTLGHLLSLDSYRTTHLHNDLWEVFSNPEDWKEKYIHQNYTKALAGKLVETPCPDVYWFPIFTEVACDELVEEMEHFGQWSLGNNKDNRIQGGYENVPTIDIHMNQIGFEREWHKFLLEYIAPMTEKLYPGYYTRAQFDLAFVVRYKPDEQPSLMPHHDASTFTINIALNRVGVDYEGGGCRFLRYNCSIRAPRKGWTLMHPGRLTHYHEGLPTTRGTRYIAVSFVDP
# Description: as §1, §3
# [13] = molecular target: T5, P4HA1; test: as above; conditions: 200 µM free compound C, read-out: Fold change versus DMSO control
# Description: as §1, §3
# [14] = molecular target: T7, EGLN1; test: as above; conditions: 200 µM free compound C, read-out: Fold change versus DMSO control
# Description: as §1, §3
remaining binding at 200 µM [1] [%],remaining binding at 200 µM [2] [%],remaining binding at 200 µM [3] [%],remaining binding at 200 µM [4] [%],remaining binding at 200 µM [5] [%],remaining binding at 200 µM [6] [%],remaining binding at 200 µM [7] [%],remaining binding at 200 µM [8] [%],remaining binding at 200 µM [9] [%],remaining binding at 200 µM [10] [%],remaining binding at 200 µM [11] [%],remaining binding at 200 µM [12] [%],remaining binding at 200 µM [13] [%],remaining binding at 200 µM [14] [%],SMILES
13,67,52,56,24,18,52,–,–,–,–,–,–,–,"O=C(O)CNC(=O)C1C(=O)OC2(CCCNC2)OC1=O (centres unmarked) [compound B, 2-(2,4-dioxo-1,5-dioxa-8-azaspiro[5.5]undecane-3-carboxamido)acetic acid hydrochloride]"
–,–,–,–,–,–,–,12,48,24,45,51,10,19,"O=C(O)CNC(=O)C1C(=O)OC(C2CCNCC2)OC1=O (centres unmarked) [compound C, 2-(4,6-dioxo-2-(piperidin-4-yl)-1,3-dioxane-5-carboxamido)acetic acid hydrochloride]"
